Assay [1] relates to Aβ(1-10). Put plainly: ELISA binding to Aβ(1-10) peptides. The following applies: 60 ng/well, 100% C-terminally biotinylated Aβ1-10; p = 0.19 versus N-bio oligomers. As to the method: An ELISA was applied to characterize the binding affinity of scFv-IC16 to different Aβ conformers. After concentration determination of the Aβ(1-42) monomer, oligomer and fibril preparations, each conformer was diluted in immobilization buffer (0.1 M NaHCO3, pH 9.3) to a concentration of 5 µg/ml, and coated on Nunc immobilizer streptavidin F96 clear plates (250 ng/well) (Nunc, Thermo Scientific, Waltham, MA, USA). Alternatively, Aβ monomers were prepared seedless in the same concentration by dissolving 50 µg N-terminally biotinylated Aβ(1-42) in 1 ml immobilization buffer and diluting it further to 5 µg/ml. N- or C-terminally biotinylated Aβ(1-10) peptides were dissolved in immobilization buffer to a final concentration of 1.2 µg/ml (60 ng/well). 50 µl of these Aβ solutions were incubated in the well for 1 h. Each well was washed with 100 µl immobilization buffer and the plate was stored at 4°C overnight in 100 µl immobilization buffer per well. Unspecific binding sites were blocked with 50 µl blocking buffer (PBS, 1% BSA) at room temperature for 1 h. […] The reaction was terminated by adding sulfuric acid to a final concentration of 1 M. The absorbance was recorded at 450 nm on Polarstar Optima plate reader (BMG, Ortenberg, Germany).
(In general: ELISA stands for enzyme-linked immunosorbent assay.)

For assay [2], the system named is Aβ(1-8). The assay is described as follows: SPR binding kinetics to immobilized Aβ(1-8). The procedure: Binding kinetics were determined by SPR using a Biacore™ X (GE Healthcare, UK). Synthetic Aβ peptides were dissolved in 10 mM NaAc, pH 4.0. The CM5 sensor chip surface (GE Healthcare, UK) was activated using N-ethyl-N′-3 […] carbodiimide (EDC) and N-hydroxysuccinimide (NHS) chemistry followed by 2-(2-pyridinyldithio)ethaneamine hydrochloride (PDEA), in order to introduce a reactive thiol group. Aβ was coupled via the C-terminal cysteine to the chip at a flow rate of 5 µl/min, and the remaining active groups were blocked by injecting cysteine. The immobilization procedure was performed according to manufacturer’s recommendation. All kinetic analyses were performed at a flow rate of 20 µl/min in PBS. Varying concentrations of scFv-IC16 (10 to 5000 nM) and IC16 (10 to 1000 nM) were injected. […] When required, the surface was regenerated by injecting 20 µl 50 mM glycine, pH 11.0. The data evaluation was performed using Biaevaluation Software 4.1.1. ScFv-IC16 data were fitted according to the Langmuir 1∶1 binding model, whereas IC16 data were fitted according to the bivalent binding model. Standard errors of equilibrium dissociation constants (KD) were calculated using standard errors of the corresponding association and dissociation rate constants.

In assay [3] the test system is Aβ plaques in brain cryosections of Tg2576 mice. The assay is described as follows: Ex vivo staining of plaques in mouse brain slices. The following applies: 9 or 12 months old Tg2576 mice and wildtype control, 20 µm sections; scFv-IC16 400 nM, 6E10 33 nM, 1-11-3 1:200; fluorescence microscopy. The procedure: Deep frozen horizontal brain cryosections (20 µm thickness) from 9 or 12 months old Tg2576 mice and the respective wildtype control were dried in ambient air for 15 min, and then fixed in ice-cold 4% (w/v) paraformaldehyde for 20 min. Incubation with 70% formic acid for 5 min was performed to enhance immunoreactivity. Sections were permeabilized with 1% Triton X-100 in TBS for 10 min, followed by blocking with Mouse on mouse (M.O.M.) Basic Kit (Vector Laboratories) in TBS-Triton (1%, v/v) for 30 min. Primary antibodies were diluted in 1% BSA/TBS-Triton (working concentration of ScFv: 400 nM, 6E10∶33 nM, 1-11-3 (Covance, USA) in 1∶200 dilution) and probed on the sections for 1 h, incubating at room temperature. […] For double staining, two secondary antibodies (goat anti mouse-Alexa488 and goat anti rabbit-Alexa-568 were mixed directly (working concentration of goat anti rabbit-Alexa568∶1.300). After 1 min of incubation with 0.5 µg/ml DAPI, the sections were coverslip-mounted with Aqua Poly/Mont (Polysciences Inc, Worrington, PA, USA). Sections were examined under a fluorescence microscope (Leica LMD6000 (Leica, Solms, Germany). Excitation Range: UV; blue; green. Excitation Filter: Bp 420/30; Bp 495/15; Bp 570/20) with camera (Leica DFC 310 FX). Images were processed with LAS software (Leica Application Suite, V.4.0.0) and ImageJ (1.45 s).

Consider one substance from paper PMC3608532, “Characterization of a Single-Chain Variable Fragment Recognizing a Linear Epitope of Aβ: A Biotechnical Tool for Studies on Alzheimer’s Disease?” (PLoS ONE, 2013).

On to “scFv-IC16: single-chain variable fragment (VH-(Gly4Ser)3-VL, His6- and Myc-tag) derived from Aβ binding monoclonal antibody IC16, expressed in E. coli”, for which the “ELISA binding to Aβ(1-10), C-terminal biotin tag” value in assay [1] is reported as “very similar to Aβ oligomers”. Also, in assay [2] (SPR Biacore X, Aβ peptide coupled via C-terminal cysteine to CM5 chip, PBS, 25°C, 20 µl/min, global fit, scFv-IC16 Langmuir 1:1 model, IC16 bivalent model, ± standard error, SEM), the k on is 3.10±0.02×10^4 M^-1 s^-1. The Kd in assay [2] (SPR Biacore X, CM5 chip, PBS, 25°C, global fit, scFv-IC16 Langmuir 1:1 model, IC16 bivalent model, standard error from kon and koff errors, SEM) stood at 0.553 µM; in assay [2] (SPR, Langmuir 1:1 binding model) it was 0.55 µM. Further, the k off in assay [2] (SPR Biacore X, CM5 chip, PBS, 25°C, global fit, scFv-IC16 Langmuir 1:1 model, IC16 bivalent model, ± standard error, SEM) is 1.72±0.005×10^−2 s^-1. The “plaque staining in brain cryosections” value in assay [3] is “detect plaques specifically”.
